{"source": "patent US9688653B2", "about": "“Ethoxyphenyl thienyl compounds and methods for the treatment of bacterial infections” (Duke University, priority 2013, dated 2017)", "key": {"[1]": {"assay": "Cytotoxicity counterscreen, CellTiter Glo, 72 hr", "format": "cell-based, human", "details": "human, bladder carcinoma 5637 cells (ATCC HTB-9); for CC50 at 72 h: read-out: Mammalian cell toxicity CC50", "method_in_brief": "(§1)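 5637 bladder carcinoma cells were exposed to a 10-point compound series (300-0.58 μM, 0.5% DMSO) for 72 h. Viability was measured by CellTiter-Glo luminescence, and TC50 (CC50) was derived, with Hyamine as cytotoxic control.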"}, "[2]": {"system": "Bladder carcinoma 5637 cells", "assay": "Cytotoxicity counterscreen, CellTiter Glo, 72 hr", "format": "cell-based, human", "details": "bladder carcinoma 5637 cells", "method_in_brief": "as §1"}, "K1 capsule of UTI89": {"system": "K1 capsule of UTI89", "assay": "Secondary assay 3: orcinol assay for released K1 capsule polysaccharide", "format": "cell-based, Escherichia coli", "method": "E. Secondary Assay 3: Orcinol Secondary Screening for Inhibitors of Bacterial Capsule Biogenesis.\nPurpose: This assay was performed only on the probe candidate. […] The biochemical determination of cell-surface associated capsule was performed using UTI89 or the Delta Region I and Delta Region II capsule mutant bacterial strains.\nPurpose: This assay was performed only on the probe candidate. […] The biochemical determination of cell-surface associated capsule was performed using UTI89 or the delta Region I and Region II capsule mutant bacterial strains.\nAssay Description: The biochemical measurement of cell-surface associated capsule was performed. UTI89 or capsule mutants were grown in culture tubes with and without the test compound (50 μM). The cultures were centrifuged, and the cell pellets were washed in PBS and resuspended in Tris buffer, pH5. […] Released polysaccharide was harvested by separation from whole bacteria by centrifugation followed by deproteination with phenol/chloroform and precipitation with ethanol. The precipitated material was subjected to acid hydrolysis (pH 2 at 80° C. for 1 hr) and incubated with orcinol, which reacts with periodic intermediates to produce a violet color quantified at OD 570 (3) Inhibitors reducing or abrogating surface encapsulation yielded low orcinol levels similar to the capsule export and synthesis mutants (Region I and II). The positive control drug C7 (100 μM final well concentration) was used in this screen.\nEndpoint Read: The samples were read at ambient temperature from the bottom for absorbance at A570 in a BioTek Quantplate reader and the degree of orcinol-reactive material was determined based on the absorbance compared to a wild-type encapsulated strain (UTI89) and a standard curve using purified sialic acid.\nOrcinol assay for released capsule material. Orcinol reactivity was used as a biochemical confirmation of altered extracellular capsule after compound treatment. UTI89 or an isogenic capsule mutant was grown in 100 μM of test compound or 1% DMSO. The assay was performed as previously described. The molecule C7 (100 μM final concentration) was used as a positive control. The assay was performed 3 times with replicate samples."}, "[3]": {"assay": "Hepatic microsome stability, human", "format": "in vitro ADME", "details": "37° C."}, "Plasma stability, mouse": {"assay": "Plasma stability, mouse", "format": "in vitro ADME", "details": "1:1 Plasma:PBS, 37° C."}, "[4]": {"details": "synthesized sample, SID 126497311"}}, "note": "Values joined by “and” are separate entries in the source; they are usually repeats but may differ in a detail not shown here. Equal values may be shown once. Read-outs that look alike come from different tables or passages of the source.", "data": [{"smiles": "CCOc1ccc(-c2cc(NC(=O)c3c(F)cccc3F)c(C(=O)O)s2)cc1", "note": "[ML317, 3-(2,6-difluorobenzamido)-5-(4-ethoxyphenyl)thiophene-2-carboxylic acid]", "values": [{"measurement": "CC50 at 72 h", "setting": "[1]; commercial sample, SID 103147605", "value": "47.2 ± 7.2", "unit": "µM"}, {"measurement": "IC50 at 72 h", "setting": "[1]; first round of synthetic analogues, n = 3", "value": 51.6, "unit": "µM"}, {"measurement": "IC50 at 72 h", "setting": "[1]; purchased analogue series, n = 2", "value": 47.2, "unit": "µM"}, {"measurement": "CC50 at 72 h", "setting": "[1]; [4]", "value": "51.6 ± 13.7", "unit": "µM"}, {"measurement": "Cytotoxicity CC50 / TC50 / IC50", "setting": "[2]", "value": "47.2 ± 7.2 µM and 51.6 µM"}, {"measurement": "Cytotoxicity CC50 / TC50 / IC50", "setting": "[2]; listed as CID 23602075", "value": "47.2 ± 7.2", "unit": "µM"}, {"measurement": "Bacterial capsule-dependent orcinol stain, % of the control sample", "setting": "K1 capsule of UTI89", "value": 21, "unit": "%"}, {"measurement": "Reduction of orcinol-reactive polysaccharides on surface of bacteria", "setting": "K1 capsule of UTI89; 100 μM, K1 strain UTI89", "value": "~80", "unit": "%"}, {"measurement": "Orcinol assay, % of control value", "setting": "K1 capsule of UTI89; [4]", "value": "Orcinol assay 21%"}, {"measurement": "Hepatic Microsome Stability, % remaining at 1 hr", "setting": "[3]", "value": 89.6, "unit": "% remaining"}, {"measurement": "Plasma Stability, % remaining at 3 hr", "setting": "Plasma stability, mouse", "value": 78.4, "unit": "% remaining"}]}]}
